± gives the expanded uncertainty stated by the source.
Settings: Crystal; DTA

| Normal melting temperature [°C] | Compound |
| --- | --- |
| 83.98 ± 0.5 | CO[C@H]1O[C@@H]2O[C@@]3(C)CC[C@H]4[C@H](C)CC[C@@H]([C@H]1C)[C@@]24OO3 [beta-artemether] |
| 139.66 ± 0.5 | C[C@H]1[C@H](OC(=O)CCC(=O)O)O[C@@H]2O[C@@]3(C)CC[C@H]4[C@H](C)CC[C@@H]1[C@@]24OO3 [artesunate] |

| Compound | Normal melting temperature [°C] |
| --- | --- |
| C[C@@H]1CC[C@H]2[C@@H](C)C(=O)O[C@@H]3O[C@@]4(C)CC[C@@H]1[C@]32OO4 [artemisinin] | 148.28 ± 0.5 |
